“And” between values parts separate entries of the source, which are not always exact repeats. Equal values may be shown once.

Results on one compound are retold here after ChEMBL document CHEMBL1122604, “(E)-2-(3,4-dimethoxyphenyl)-3-fluoroallylamine: a selective, enzyme-activated inhibitor of type B monoamine oxidase” (J Med Chem, 1984).

Data set [1] has as its target T1, Amine oxidase [flavin-containing] A (Rattus norvegicus, UniProt P21396).
T1 sequence (P21396 whole entry): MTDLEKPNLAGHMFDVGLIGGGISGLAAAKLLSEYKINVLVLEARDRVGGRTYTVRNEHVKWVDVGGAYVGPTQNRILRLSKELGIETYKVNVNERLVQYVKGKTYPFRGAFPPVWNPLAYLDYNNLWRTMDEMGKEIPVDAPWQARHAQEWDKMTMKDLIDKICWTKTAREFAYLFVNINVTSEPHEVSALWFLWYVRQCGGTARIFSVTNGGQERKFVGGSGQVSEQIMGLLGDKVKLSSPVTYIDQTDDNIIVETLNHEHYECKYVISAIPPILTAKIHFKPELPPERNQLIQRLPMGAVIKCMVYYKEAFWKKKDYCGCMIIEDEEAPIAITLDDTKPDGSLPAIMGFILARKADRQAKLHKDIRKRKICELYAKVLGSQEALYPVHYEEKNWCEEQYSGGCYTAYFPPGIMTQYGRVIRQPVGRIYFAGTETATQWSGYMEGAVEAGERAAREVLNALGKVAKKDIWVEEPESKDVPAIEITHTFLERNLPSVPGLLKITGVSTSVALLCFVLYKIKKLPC
Briefly: Inhibition of monoamine oxidase (MAO) type A by administering the compound perorally at a dose level of 0.5 mg/(kg day). The class given is functional. The settings on record: po.

A short description of data set [2]: The minimum half-life at saturation concentration of 130 uM at 10 degrees Centigrade. The class given is ADME. As to conditions: read-out: T50.
Data set [3] addresses T2, Amine oxidase [flavin-containing] B (Rattus norvegicus, UniProt P19643).
T2 sequence (P19643 whole entry): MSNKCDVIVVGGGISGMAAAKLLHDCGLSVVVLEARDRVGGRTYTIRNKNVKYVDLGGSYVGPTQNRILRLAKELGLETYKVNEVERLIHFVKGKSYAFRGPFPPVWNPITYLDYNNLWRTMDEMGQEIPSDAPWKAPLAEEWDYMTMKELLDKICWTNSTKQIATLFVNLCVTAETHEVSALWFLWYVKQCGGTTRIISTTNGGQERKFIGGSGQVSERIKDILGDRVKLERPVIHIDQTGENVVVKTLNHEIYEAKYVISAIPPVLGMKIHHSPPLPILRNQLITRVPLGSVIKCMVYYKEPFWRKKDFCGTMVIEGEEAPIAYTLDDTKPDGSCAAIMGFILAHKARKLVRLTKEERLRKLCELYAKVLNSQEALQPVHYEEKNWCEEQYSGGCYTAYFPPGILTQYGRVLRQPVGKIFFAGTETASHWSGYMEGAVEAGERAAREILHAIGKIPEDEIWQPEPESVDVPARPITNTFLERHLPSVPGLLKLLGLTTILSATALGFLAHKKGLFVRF
Briefly: Inhibition of monoamine oxidase (MAO) type B by administering the compound perorally at a dose level of 0.5 mg/(kg day). The format is functional. The settings on record: po.

Data set [4] in a line: The minimum half-life at apparent dissociation concentration of 40 uM at 10 degrees Centigrade. The format is ADME.
For another data set, the species on record is Rattus norvegicus. Put plainly: Compound was evaluated for apparent kinetic dissociation (Ki) using Kitz and Wilson method. The class given is functional, organism-based.
For data set [5], the target named is T1, Amine oxidase [flavin-containing] A. Put plainly: Inhibition of monoamine oxidase (MAO) type A by administering the compound perorally at a dose level of 2.5 mg/(kg day). The format is functional. As to conditions: po.

The term Inhibition denotes the drop in the measured response relative to a control, in per cent. Low values mean a response near the control, high ones a response far below the control. Take `COc1ccc(/C(=C\F)CN)cc1OC.Cl`: the Inhibition was less than 15% in data set [1], greater than 85% in data set [3] and 50% in data set [5]. In data set [2], the half-life at 130 µM was 14.5 min. For the same compound, the T50 in data set [4] was determined as 1.7 min. For the same compound, the Ki in the data set filed under Rattus norvegicus was 40 µM and 130 µM.
